Measured values reported in patent US11318133B2, “Modulators of integrated stress response pathway” (Praxis Biotech LLC, priority 2019, dated 2022).
pIC50: −log10 of the molar value.

Legend:
ATF4 = ATF4 expression inhibition assay (ATF4 luciferase reporter, thapsigargin-stressed); type: cell-based; settings: Homo sapiens, HEK-293T; HEK293T cells carrying ATF4 luciferase reporter, 100 nM thapsigargin, 3 hours
Experimental: The ATF4 reporter was prepared by fusing the human full length 5′UTR of ATF4 (NCBI Accession No. BC022088.2) upstream of the firefly luciferase coding sequence lacking the initiator methionine. The fused sequence was cloned into pLenti-EF1a-C-Myc-DDK-IRES-Puro cloning vector (Origen #PS100085) using standard methods. Virus production was carried out by using Lenti-X™ Packaging Single Shots Protocol (Clonetech #631276). Viral particles were used to transduce HEK293T cells (ATCC #CRL-3216, ATCC Manassas, Va.), which were subsequently selected with puromycin to generate stable cell line. Cells were maintained at 37° C. and 5% CO2 in DMEM-F12 (Hyclone #SH30023.02) supplemented with 10% heat-inactivated fetal bovine serum (Gibco #16000-044), 2 mM L-glutamine (Gibco #25030-081), 100 U/ml penicillin, and 100 μg/ml streptomycin (Gibco #15140-122).
HEK293T cells carrying the ATF4 luciferase reporter were plated on 96-well plates (Nunc) at 10,000 cells per well. Cells were treated two days after seeding with 100 nM thapsigargin (Tg) (Sigma-Aldrich #T9033) in the presence of different concentrations of selected compounds ranging from 1 nM to […]. Cells without treatment or cells treated with Tg alone were used as controls. Assay plates containing cells were incubated for 3 hours at 37° C.
Luciferase reactions were performed using Luciferase Assay System (Promega #E1501) as specified by the manufacturer. Luminescence was read with an integration time of 1 s and a gain of 110 using a Cytation-5 multi-mode microplate reader (BioTek). Relative luminescence units were normalized to Tg treatment (0% inhibition) and untreated cells (100% inhibition) and the percentage of ATF4 inhibition was calculated.
Accordingly, inhibition of ATF4 expression as a result of the test compound indicates suppression of the ISR pathway.

[1] = system: Chinese hamster ovary (CHO) cells; assay: Protein synthesis assay (puromycin incorporation, western blot); type: cell-based; settings: without Tg, 2 hours, media alone = 100%
Experimental: Chinese hamster ovary (CHO) cells were maintained at 37° C. and 5% CO2 in Dulbecco's Modified Eagle's Media (DMEM) supplemented with 10% fetal bovine serum, 2 mM L-glutamine, 100 U/ml penicillin, and 100 μg/ml streptomycin. After reaching 80% of confluence, cells were detached and seeded on 6 well plates in complete media, allowed to recover overnight and treated for 2 hours with 1 μM of the test compound (to assess protein synthesis levels in unstressed condition), or for 2 hours with 300 nM Tg in the presence of 1 μM of the test compound (to assess the recovery of protein synthesis in a stressed condition). Cells with Tg alone were used as controls.
After the 2 hours treatments, media were replaced by adding 10 μg/ml puromycin (Sigma Aldrich #P8833) in complete media for 30 min. Media were removed and cells were lysed with SDS-PAGE lysis buffer. Lysates were transferred to 1.5 ml tubes and sonicated for 3 min and total protein amount were quantified using BCA Protein Assay Kit (Pierce). Equal amount of protein (30 μg) was loaded on SDS-PAGE gels. Proteins were transferred onto […] PVDF membranes (BioRad) and probed with primary antibodies diluted in Tris-buffered saline supplemented with 0.1% Tween 20 (Merck #S6996184 505) and 3% bovine serum albumin (Rockland #BSA-50).
(§1) Puromycin (12D10) (Merck #MABE343) and 3-actin (Sigma Aldrich #A5441) antibodies were used as primary antibody. A HRP-conjugated secondary antibody (Rockland) was employed to detect immune-reactive bands using enhanced chemiluminescence (ECL Western Blotting Substrate, Pierce). Quantification of protein bands was done by densitometry using ImageJ software.
Percent increase of protein synthesis in unstressed cells (without Tg treatment) in the presence of media alone or certain test compounds is shown in Table 3. The percentage levels were normalized to the media alone condition, which correspond to 100% protein synthesis.
Percent recovery of protein synthesis in stressed cells (with Tg treatment) due to the test compounds at 1 μM is also shown in Table 3. The levels were normalized to the media alone and Tg alone conditions, which correspond to 100% and 0% respectively.

Balb/c mice = assay: Fasting-induced muscle atrophy, in vivo protein synthesis; settings: 10 mg/kg oral, 2 days fasting, versus vehicle-treated fasted mice; FIG. 1
Experimental: Wild type eight-weeks-old male Balb/c mice obtained from the vivarium Fundaciön Ciencia & Vida Chile (Santiago, Chile) are used. Mice were housed in independent plastic cages in a room maintained at 25° C. with a 12-h:12-h light:dark cycle. […]
Upon collection, muscles were immediately frozen in liquid nitrogen and then stored at −80° C. […] Protein concentration in supernatants was determined using BCA Protein Assay Kit (Pierce). […]
as §1, with “Millipore,” for “#MABE343)”, “β-actin (Sigma-Aldrich)” for “3-actin (Sigma Aldrich #A5441)”, “antibodies.” for “antibody.”
Percent of protein synthesis in tibialis anterior of each mouse from fed or fasted animals treated with vehicle or compound 3 is shown in FIG. 1. The levels were normalized to β-actin expression and percentage was calculated as the percent relative to protein synthesis levels from control mice (Fed) which correspond to 100%.

Compound | pIC50 (ATF4) | % Protein synthesis in unstressed cells (1 μM test compound) [1] | Protein synthesis in tibialis anterior of fasted mice (Balb/c mice)
O=C(NC1CCN(CC(O)COc2ccc(Cl)c(F)c2)CC1)c1cn(C2CC2)c2cc(Cl)c(F)cc2c1=O (centres unmarked) [Compound 1, 7-chloro-N-(1-(3-(4-chloro-3-fluorophenoxy)-2-hydroxypropyl)piperidin-4-yl)-1-cyclopropyl-6-fluoro-4-oxo-1,4-dihydroquinoline-3-carboxamide] | < 5.00 | 336.9% | –
O=C(NC1CCN(C[C@@H](O)COc2ccc(Cl)c(F)c2)CC1)c1cn(C2CC2)c2cc(Cl)c(F)cc2c1=O [Compound 2, (R)-7-chloro-N-(1-(3-(4-chloro-3-fluorophenoxy)-2-hydroxypropyl)piperidin-4-yl)-1-cyclopropyl-6-fluoro-4-oxo-1,4-dihydroquinoline-3-carboxamide] | < 5.00 | 336.3% | –
O=C(NC1CCN(C[C@H](O)COc2ccc(Cl)c(F)c2)CC1)c1cn(C2CC2)c2cc(Cl)c(F)cc2c1=O [Compound 3, (S)-7-chloro-N-(1-(3-(4-chloro-3-fluorophenoxy)-2-hydroxypropyl)piperidin-4-yl)-1-cyclopropyl-6-fluoro-4-oxo-1,4-dihydroquinoline-3-carboxamide] | < 5.00 | 397.3% | improvement in protein synthesis in muscles
O=C(NN1CCN(C[C@@H](O)COc2ccc(Cl)c(F)c2)CC1)c1cn(C2CC2)c2cc(Cl)c(F)cc2c1=O [Compound 5, (R)-7-chloro-N-(4-(3-(4-chloro-3-fluorophenoxy)-2-hydroxypropyl)piperazin-1-yl)-1-cyclopropyl-6-fluoro-4-oxo-1,4-dihydroquinoline-3-carboxamide] | < 5.00 | 173.2% | –
O=C(NN1CCN(C[C@H](O)COc2ccc(Cl)c(F)c2)CC1)c1cn(C2CC2)c2cc(Cl)c(F)cc2c1=O [Compound 6, (S)-7-chloro-N-(4-(3-(4-chloro-3-fluorophenoxy)-2-hydroxypropyl)piperazin-1-yl)-1-cyclopropyl-6-fluoro-4-oxo-1,4-dihydroquinoline-3-carboxamide] | < 5.00 | 244.5% | –
